Experimental findings from patent US20240209028A1, “CNP COMPOUNDS” (priority 2022, published 2024) are described below.

What is called EC50 is the midpoint of the concentration-response curve. The low end stands for a more potent agent, the high end for a less potent agent.

Starred links: 1 amine or outer side, 2 acyl side, 3 side chain; linkers in the order of their positions; H or OH if unused. Positions of bridges follow the written chain, without caps; N, C: chain ends. Residues, ends and D or L forms follow the SMILES beside them. *: point of attachment. C18 diacid = O=C(O)CCCCCCCCCCCCCCCCC(=O)*; γGlu = O=C(O)[C@H](CCC(=O)[*:2])N[*:1]; AEEA = NCCOCCOCC(=O)O

In this experiment the target is T1, human natriuretic peptide receptor 2 (hNPR2) (Homo sapiens, UniProt P20594).
T1 construct: expressed in transfected cells; host or cells: HEK293 (ATCC CRL-1573), clone 35, co-transfected with pGloSensor-42F
T1 sequence (P20594 23-1047): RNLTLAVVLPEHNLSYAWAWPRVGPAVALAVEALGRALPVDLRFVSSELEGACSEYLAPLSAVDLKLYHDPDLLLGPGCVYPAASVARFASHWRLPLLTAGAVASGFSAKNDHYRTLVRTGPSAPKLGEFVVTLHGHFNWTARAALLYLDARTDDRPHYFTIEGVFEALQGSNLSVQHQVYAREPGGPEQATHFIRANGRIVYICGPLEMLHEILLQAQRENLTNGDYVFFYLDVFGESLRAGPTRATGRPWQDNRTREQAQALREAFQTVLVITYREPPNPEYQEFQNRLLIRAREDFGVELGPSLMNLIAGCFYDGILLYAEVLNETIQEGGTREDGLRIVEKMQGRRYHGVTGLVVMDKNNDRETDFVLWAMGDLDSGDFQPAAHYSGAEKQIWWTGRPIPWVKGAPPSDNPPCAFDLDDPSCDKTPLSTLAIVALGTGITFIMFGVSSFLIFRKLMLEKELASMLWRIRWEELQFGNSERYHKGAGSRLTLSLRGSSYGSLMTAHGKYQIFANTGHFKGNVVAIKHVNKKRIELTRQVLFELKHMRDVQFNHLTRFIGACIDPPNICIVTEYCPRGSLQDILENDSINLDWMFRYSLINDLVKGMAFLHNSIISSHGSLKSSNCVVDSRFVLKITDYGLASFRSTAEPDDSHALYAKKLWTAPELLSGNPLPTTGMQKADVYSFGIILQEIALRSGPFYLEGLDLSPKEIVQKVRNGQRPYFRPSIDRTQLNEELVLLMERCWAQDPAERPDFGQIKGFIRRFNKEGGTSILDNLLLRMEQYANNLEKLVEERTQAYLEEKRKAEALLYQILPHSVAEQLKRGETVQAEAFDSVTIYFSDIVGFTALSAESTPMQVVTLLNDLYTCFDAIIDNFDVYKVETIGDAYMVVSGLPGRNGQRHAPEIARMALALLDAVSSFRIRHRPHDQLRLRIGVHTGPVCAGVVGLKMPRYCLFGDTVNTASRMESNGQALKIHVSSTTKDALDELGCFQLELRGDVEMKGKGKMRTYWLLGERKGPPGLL
The experiment in a line: In vitro hNPR2 activity assay (cGMP GloSensor reporter, HEK293). The experiment is classed as cell-based. Particulars: for EC50: 0% HSA, HEK293-hNPR2/GloSensor cells; for hNPR2 0% HSA. [EC50% rel CNP]: potency relative to CNP22 (0065). Summed up:
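Potency is the EC50 from a four-parameter logistic fit, also expressed relative to the in-plate CNP22 control (×100), with at least two replicates. Compounds (ten concentrations, […], HSA-free diluent with 1% OVA, 0.01% Tween20) were incubated 30 min at 37 °C on HEK293 cells co-expressing hNPR2 and a GloSensor cGMP luciferase. Luminescence detected with Bright-Glo.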

Regarding `CC[C@H](C)[C@@H]1NC(=O)[C@H](CCCNC(=N)N)NC(=O)[C@H](CC(=O)O)NC(=O)[C@H](CC(C)C)NC(=O)[C@H](CCCCN)NC(=O)[C@H](CC(C)C)NC(=O)CNC(=O)[C@H](Cc2ccccc2)NC(=O)[C@@H](NC(=O)CNC(=O)[C@H](CCCCN)NC(=O)[C@H](CO)NC(=O)[C@H](CC(C)C)NC(=O)CNC(=O)[C@H](Cc2c[nH]cn2)NC(=O)[C@H](Cc2c[nH]cn2)NC(=O)[C@H](CCC(N)=O)NC(=O)[C@H](C)NC(=O)CNC(=O)[C@H](Cc2c[nH]cn2)NC(=O)[C@H](Cc2ccc(O)cc2)NC(=O)COCCOCCNC(=O)COCCOCCNC(=O)CC[C@H](NC(=O)CCCCCCCCCCCCCCCCC(=O)O)C(=O)O)CSSC[C@@H](C(=O)O)NC(=O)CNC(=O)[C@H](CC(C)C)NC(=O)CNC(=O)[C@H](CO)NC(=O)[C@H](CC(C)C)NC(=O)[C@H](CO)NC(=O)CNC1=O` [compound 1345] ({C18 diacid-γGlu-AEEA-AEEA}-YHGAQHHGLSKGCFGLKLDRIGSLSGLGC-OH; disulfide 13-29), the midpoint of the response, the EC50, lay at 0.38 nM and the “hNPR2 0% HSA. [EC50% rel CNP]” value stood at 21.1%.

For `CC[C@H](C)[C@@H]1NC(=O)[C@H](CCCNC(=N)N)NC(=O)[C@H](CC(=O)O)NC(=O)[C@H](CC(C)C)NC(=O)[C@@H]2CCCN2C(=O)[C@H](CC(C)C)NC(=O)CNC(=O)[C@H](Cc2ccccc2)NC(=O)[C@@H](NC(=O)CNC(=O)[C@H](CCCCN)NC(=O)[C@H](CO)NC(=O)[C@H](CC(C)C)NC(=O)CNC(=O)[C@H](Cc2c[nH]cn2)NC(=O)[C@H](Cc2c[nH]cn2)NC(=O)[C@H](CCC(N)=O)NC(=O)[C@H](C)NC(=O)CNC(=O)[C@H](Cc2c[nH]cn2)NC(=O)[C@H](Cc2ccc(O)cc2)NC(=O)COCCOCCNC(=O)COCCOCCNC(=O)CC[C@H](NC(=O)CCCCCCCCCCCCCCCCC(=O)O)C(=O)O)CSSC[C@@H](C(=O)O)NC(=O)CNC(=O)[C@H](CC(C)C)NC(=O)CNC(=O)[C@H](CO)NC(=O)[C@H](CC(C)C)NC(=O)[C@H](CO)NC(=O)CNC1=O` [compound 1346] ({C18 diacid-γGlu-AEEA-AEEA}-YHGAQHHGLSKGCFGLPLDRIGSLSGLGC-OH; disulfide 13-29; C-terminus assumed), the “hNPR2 0% HSA. [EC50% rel CNP]” value amounted to 17.0%.

In the case of `CC[C@H](C)[C@@H]1NC(=O)[C@H](CCCNC(=N)N)NC(=O)[C@H](CC(=O)O)NC(=O)[C@H](CC(C)C)NC(=O)[C@@H]2CCCN2C(=O)[C@H](CC(C)C)NC(=O)CNC(=O)[C@H](Cc2ccccc2)NC(=O)[C@@H](NC(=O)CNC(=O)[C@H](Cc2c[nH]cn2)NC(=O)[C@H](CO)NC(=O)[C@H](CC(C)C)NC(=O)CNC(=O)[C@H](CCCCN)NC(=O)[C@H](CCCCN)NC(=O)[C@H](CCC(N)=O)NC(=O)[C@H](C)NC(=O)CNC(=O)COCCOCCNC(=O)COCCOCCNC(=O)CC[C@H](NC(=O)CCCCCCCCCCCCCCCCC(=O)O)C(=O)O)CSSC[C@@H](C(=O)O)NC(=O)CNC(=O)[C@H](CC(C)C)NC(=O)CNC(=O)[C@H](CO)NC(=O)[C@H](CC(C)C)NC(=O)[C@H](CO)NC(=O)CNC1=O` [compound 1347] ({C18 diacid-γGlu-AEEA-AEEA}-GAQKKGLSHGCFGLPLDRIGSLSGLGC-OH; disulfide 11-27; C-terminus assumed), the “hNPR2 0% HSA. [EC50% rel CNP]” value is reported as 15.4%.

For the compound `CC[C@H](C)[C@@H]1NC(=O)[C@H](CCCNC(=N)N)NC(=O)[C@H](CC(=O)O)NC(=O)[C@H](CC(C)C)NC(=O)[C@@H]2CCCN2C(=O)[C@H](CC(C)C)NC(=O)CNC(=O)[C@H](Cc2ccccc2)NC(=O)[C@@H](NC(=O)CNC(=O)[C@H](CO)NC(=O)[C@H](Cc2c[nH]cn2)NC(=O)[C@H](CC(C)C)NC(=O)CNC(=O)[C@H](CCCCN)NC(=O)[C@H](CCCCN)NC(=O)[C@H](CCC(N)=O)NC(=O)[C@H](C)NC(=O)CNC(=O)COCCOCCNC(=O)COCCOCCNC(=O)CC[C@H](NC(=O)CCCCCCCCCCCCCCCCC(=O)O)C(=O)O)CSSC[C@@H](C(=O)O)NC(=O)CNC(=O)[C@H](CC(C)C)NC(=O)CNC(=O)[C@H](CO)NC(=O)[C@H](CC(C)C)NC(=O)[C@H](CO)NC(=O)CNC1=O` [compound 1348] ({C18 diacid-γGlu-AEEA-AEEA}-GAQKKGLHSGCFGLPLDRIGSLSGLGC-OH; disulfide 11-27), the “hNPR2 0% HSA. [EC50% rel CNP]” value is recorded as 31.4%.

As to `CC[C@H](C)[C@@H]1NC(=O)[C@H](CCCNC(=N)N)NC(=O)[C@H](CC(=O)O)NC(=O)[C@H](CC(C)C)NC(=O)[C@@H]2CCCN2C(=O)[C@H](CC(C)C)NC(=O)CNC(=O)[C@H](Cc2ccccc2)NC(=O)[C@@H](NC(=O)CNC(=O)[C@H](CO)NC(=O)[C@H](CO)NC(=O)[C@H](CC(C)C)NC(=O)CNC(=O)[C@@H](NC(=O)[C@H](Cc2c[nH]cn2)NC(=O)[C@H](CCC(N)=O)NC(=O)[C@H](C)NC(=O)CNC(=O)[C@H](Cc2c[nH]cn2)NC(=O)[C@H](Cc2ccc(O)cc2)NC(=O)[C@H](CCCCN)NC(=O)[C@H](CCCNC(=N)N)NC(=O)[C@H](C)NC(=O)COCCOCCNC(=O)COCCOCCNC(=O)CC[C@H](NC(=O)CCCCCCCCCCCCCCCCC(=O)O)C(=O)O)[C@@H](C)O)CSSC[C@@H](C(=O)O)NC(=O)CNC(=O)[C@H](CC(C)C)NC(=O)CNC(=O)[C@H](CO)NC(=O)[C@H](CC(C)C)NC(=O)[C@H](CO)NC(=O)CNC1=O` [compound 1350] ({C18 diacid-γGlu-AEEA-AEEA}-ARKYHGAQHTGLSSGCFGLPLDRIGSLSGLGC-OH; disulfide 16-32), the “hNPR2 0% HSA. [EC50% rel CNP]” value was found to be 41.0%.

For `CC[C@H](C)[C@@H]1NC(=O)[C@H](CCCNC(=N)N)NC(=O)[C@H](CC(=O)O)NC(=O)[C@H](CC(C)C)NC(=O)[C@@H]2CCCN2C(=O)[C@H](CC(C)C)NC(=O)CNC(=O)[C@H](Cc2ccccc2)NC(=O)[C@@H](NC(=O)CNC(=O)[C@H](CCCCN)NC(=O)[C@H](CO)NC(=O)[C@H](CC(C)C)NC(=O)CNC(=O)[C@H](CCCCN)NC(=O)[C@H](CCCCN)NC(=O)[C@H](CCC(N)=O)NC(=O)[C@H](C)NC(=O)CNC(=O)[C@H](Cc2c[nH]cn2)NC(=O)[C@H](CCC(=O)O)NC(=O)COCCOCCNC(=O)COCCOCCNC(=O)COCCOCCNC(=O)CC[C@H](NC(=O)CCCCCCCCCCCCCCCCC(=O)O)C(=O)O)CSSC[C@@H](C(=O)O)NC(=O)CNC(=O)[C@H](CC(C)C)NC(=O)CNC(=O)[C@H](CO)NC(=O)[C@H](CC(C)C)NC(=O)[C@H](CO)NC(=O)CNC1=O` [compound 1353] ({C18 diacid-γGlu-AEEA-AEEA-AEEA}-EHGAQKKGLSKGCFGLPLDRIGSLSGLGC-OH; disulfide 13-29; C-terminus assumed), the “hNPR2 0% HSA. [EC50% rel CNP]” value worked out at 9.0%.

Take `CC[C@H](C)[C@@H]1NC(=O)[C@H](CCCNC(=N)N)NC(=O)[C@H](CC(=O)O)NC(=O)[C@H](CC(C)C)NC(=O)[C@@H]2CCCN2C(=O)[C@H](CC(C)C)NC(=O)CNC(=O)[C@H](Cc2ccccc2)NC(=O)[C@@H](NC(=O)CNC(=O)[C@H](CO)NC(=O)[C@H](CO)NC(=O)[C@H](CC(C)C)NC(=O)CNC(=O)[C@H](CCCCN)NC(=O)[C@H](CCCCN)NC(=O)[C@H](CCC(N)=O)NC(=O)[C@H](C)NC(=O)CNC(=O)[C@H](CCCCN)NC(=O)[C@H](Cc2ccc(O)cc2)NC(=O)COCCOCCNC(=O)COCCOCCNC(=O)COCCOCCNC(=O)CC[C@H](NC(=O)CCCCCCCCCCCCCCCCC(=O)O)C(=O)O)CSSC[C@@H](C(=O)O)NC(=O)CNC(=O)[C@H](CC(C)C)NC(=O)CNC(=O)[C@H](CO)NC(=O)[C@H](CC(C)C)NC(=O)[C@H](CO)NC(=O)CNC1=O` [compound 1355] ({C18 diacid-γGlu-AEEA-AEEA-AEEA}-YKGAQKKGLSSGCFGLPLDRIGSLSGLGC-OH; disulfide 13-29): the “hNPR2 0% HSA. [EC50% rel CNP]” value worked out at 28.2%.

Consider `CC[C@H](C)[C@@H]1NC(=O)[C@H](CCCNC(=N)N)NC(=O)[C@H](CC(=O)O)NC(=O)[C@H](CC(C)C)NC(=O)[C@H](CCCCN)NC(=O)[C@H](CC(C)C)NC(=O)CNC(=O)[C@H](Cc2ccccc2)NC(=O)[C@@H](NC(=O)CNC(=O)[C@H](CCCCN)NC(=O)[C@H](CO)NC(=O)[C@H](CC(C)C)NC(=O)CNC(=O)[C@H](CCCCN)NC(=O)[C@H](CCCCN)NC(=O)[C@H](CCC(N)=O)NC(=O)[C@H](C)NC(=O)CNC(=O)[C@H](Cc2c[nH]cn2)NC(=O)[C@H](CCC(=O)O)NC(=O)COCCOCCNC(=O)COCCOCCNC(=O)COCCOCCNC(=O)CC[C@H](NC(=O)CC[C@H](NC(=O)CCCCCCCCCCCCCCCCC(=O)O)C(=O)O)C(=O)O)CSSC[C@@H](C(=O)O)NC(=O)CNC(=O)[C@H](CC(C)C)NC(=O)CNC(=O)[C@H](CO)NC(=O)[C@H](CC(C)C)NC(=O)[C@H](CO)NC(=O)CNC1=O` [compound 1357], for which the EC50 turned out to be 2.53 nM and the “hNPR2 0% HSA. [EC50% rel CNP]” value worked out at 4.3%.
